In PubChem BioAssay (NCI):
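In this assay, cells in 96-well plates receive the compound at five concentrations for 48 hours. Endpoints are linearly interpolated between the surrounding concentrations. Definition used: TGI = concentration required for complete inhibition of growth.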

Legend:
Experiment in all cases: NCI-60 cell line screen, 48 h
[1] = system: TK-10 renal
[2] = system: SNB-19 CNS
[3] = system: HCT-15 colon
[4] = system: OVCAR-4 ovarian
[5] = system: OVCAR-5 ovarian
[6] = system: ACHN renal
[7] = system: OVCAR-3 ovarian
[8] = system: SN12C renal
[9] = system: DMS 114 small cell lung
[10] = system: NCI-H460 lung
[11] = system: HCC-2998 colon
[12] = system: MALME-3M melanoma
[13] = system: HT29 colon
[14] = system: EKVX NSCLC
[15] = system: SK-MEL-5 melanoma
[16] = system: RXF-631 renal
[17] = system: A498 renal
[18] = system: K-562 leukemia
[19] = system: SF-295 CNS
[20] = system: HOP-18 NSCLC
[21] = system: SK-OV-3 ovarian
[22] = system: IGROV1 ovarian
[23] = system: SNB-75 CNS
[24] = system: DMS 273 small cell lung
[25] = system: M19-MEL melanoma
[26] = system: NCI-H226 lung
[27] = system: U251 CNS
[28] = system: M14 melanoma
[29] = system: HOP-92 NSCLC
[30] = system: SF-268 CNS
[31] = system: SW-620 colon
[32] = system: CAKI-1 renal
[33] = system: SF-539 CNS
[34] = system: LXFL 529 NSCLC
[35] = system: SK-MEL-2 melanoma
[36] = system: XF 498 CNS
[37] = system: UO-31 renal
[38] = system: NCI-H23 lung
[39] = system: KM12 colon
[40] = system: HOP-62 NSCLC
[41] = system: UACC-257 melanoma
[42] = system: UACC-62 melanoma
[43] = system: HCT-116 colon
[44] = system: NCI-H522 lung
[45] = system: SK-MEL-28 melanoma
[46] = system: DLD-1 colon
[47] = system: A549 NSCLC
[48] = system: OVCAR-8 ovarian
[49] = system: KM20L2 colon
[50] = system: HL-60(TB) leukemia
[51] = system: CCRF-CEM leukemia
[52] = system: 786-0 renal
[53] = system: SNB-78 CNS
[54] = system: MOLT-4 leukemia
[55] = system: COLO 205 colon
[56] = system: RPMI-8226 leukemia
[57] = system: SR leukemia
[58] = system: LOX IMVI melanoma
[59] = system: RXF 393 renal

CCCNC(=O)c1cc2ccccc2cc1C(=O)OC
TGI [1]: > 100 µM
TGI [2]: > 100 µM
TGI [3]: > 100 µM
TGI [4]: > 100 µM
TGI [5]: > 100 µM
TGI [6]: > 100 µM
TGI [7]: > 100 µM
TGI [8]: > 100 µM
TGI [9]: > 100 µM
TGI [10]: > 100 µM
TGI [11]: > 100 µM
TGI [12]: > 100 µM
TGI [13]: > 100 µM
TGI [14]: > 100 µM
TGI [15]: > 100 µM
TGI [16]: > 100 µM
TGI [17]: > 100 µM
TGI [18]: > 100 µM
TGI [19]: > 100 µM
TGI [20]: > 100 µM
TGI [21]: > 100 µM
TGI [22]: > 100 µM
TGI [23]: 75.8 µM
TGI [24]: > 100 µM
TGI [25]: > 100 µM
TGI [26]: > 100 µM
TGI [27]: > 100 µM
TGI [28]: > 100 µM
TGI [29]: > 100 µM
TGI [30]: > 100 µM
TGI [31]: > 100 µM
TGI [32]: > 100 µM
TGI [33]: > 100 µM
TGI [34]: > 100 µM
TGI [35]: > 100 µM
TGI [36]: > 100 µM
TGI [37]: > 100 µM
TGI [38]: > 100 µM
TGI [39]: > 100 µM
TGI [40]: > 100 µM
TGI [41]: > 100 µM
TGI [42]: > 100 µM
TGI [43]: > 100 µM
TGI [44]: > 100 µM
TGI [45]: > 100 µM
TGI [46]: > 100 µM
TGI [47]: > 100 µM
TGI [48]: > 100 µM
TGI [49]: > 100 µM
TGI [50]: > 100 µM
TGI [51]: > 100 µM
TGI [52]: > 100 µM
TGI [53]: > 100 µM
TGI [54]: > 100 µM
TGI [55]: > 100 µM
TGI [56]: > 100 µM

COC1=NN2C(OC)(c3ccccc3)c3c(-c4ccccc4)sc(-c4ccccc4)c3C2(c2ccccc2)S1 (configuration not stated)
TGI [1]: > 100 µM
TGI [57]: > 100 µM
TGI [2]: > 100 µM
TGI [3]: > 100 µM
TGI [5]: > 100 µM
TGI [6]: > 100 µM
TGI [7]: > 10 µM
TGI [8]: > 100 µM
TGI [10]: > 100 µM
TGI [11]: > 100 µM
TGI [12]: > 100 µM
TGI [13]: > 100 µM
TGI [16]: > 100 µM
TGI [17]: > 100 µM
TGI [18]: > 100 µM
TGI [19]: > 100 µM
TGI [21]: > 100 µM
TGI [22]: > 100 µM
TGI [23]: > 100 µM
TGI [24]: > 100 µM
TGI [27]: > 100 µM
TGI [28]: > 10 µM
TGI [29]: > 100 µM
TGI [30]: > 100 µM
TGI [31]: > 100 µM
TGI [32]: > 100 µM
TGI [33]: > 100 µM
TGI [34]: > 100 µM
TGI [35]: > 100 µM
TGI [36]: > 100 µM
TGI [37]: > 100 µM
TGI [38]: > 100 µM
TGI [39]: > 100 µM
TGI [40]: > 10 µM
TGI [41]: > 100 µM
TGI [42]: > 100 µM
TGI [43]: > 100 µM
TGI [44]: > 100 µM
TGI [45]: > 100 µM
TGI [46]: > 100 µM
TGI [47]: > 100 µM
TGI [48]: > 100 µM
TGI [50]: > 100 µM
TGI [51]: > 100 µM
TGI [52]: > 100 µM
TGI [58]: > 100 µM
TGI [53]: > 100 µM
TGI [54]: > 100 µM
TGI [55]: > 100 µM

CC1=C(C(=O)Nc2ccccc2C)C(c2ccc(N(C)C)cc2)C(C(=O)Nc2ccccc2C)=C(C)N1
TGI [1]: > 100 µM
TGI [2]: > 100 µM
TGI [3]: > 100 µM
TGI [5]: > 100 µM
TGI [6]: > 100 µM
TGI [7]: > 100 µM
TGI [8]: > 100 µM
TGI [9]: > 100 µM
TGI [10]: > 100 µM
TGI [11]: > 100 µM
TGI [12]: > 100 µM
TGI [13]: > 100 µM
TGI [14]: > 100 µM
TGI [15]: > 100 µM
TGI [16]: > 100 µM
TGI [17]: > 100 µM
TGI [18]: > 100 µM
TGI [19]: > 100 µM
TGI [21]: > 100 µM
TGI [22]: > 100 µM
TGI [24]: > 100 µM
TGI [25]: > 100 µM
TGI [26]: > 100 µM
TGI [27]: > 100 µM
TGI [30]: > 100 µM
TGI [31]: > 100 µM
TGI [33]: > 100 µM
TGI [35]: > 100 µM
TGI [36]: > 100 µM
TGI [59]: > 100 µM
TGI [37]: > 100 µM
TGI [38]: > 100 µM
TGI [39]: > 100 µM
TGI [40]: > 100 µM
TGI [41]: > 100 µM
TGI [42]: > 100 µM
TGI [43]: > 100 µM
TGI [44]: > 100 µM
TGI [45]: > 100 µM
TGI [46]: > 100 µM
TGI [47]: > 100 µM
TGI [48]: > 100 µM
TGI [49]: > 100 µM
TGI [50]: 53.8 µM
TGI [51]: > 100 µM
TGI [52]: > 100 µM
TGI [58]: > 100 µM
TGI [54]: > 100 µM
TGI [55]: > 100 µM
TGI [56]: > 100 µM

COc1ccc(C2C(C(=O)O)=C(COC(C)=O)Oc3cc4c(cc32)OCO4)cc1 (configuration not stated)
TGI [1]: > 100 µM
TGI [2]: > 100 µM
TGI [3]: > 100 µM
TGI [4]: > 100 µM
TGI [6]: > 100 µM
TGI [7]: > 100 µM
TGI [8]: > 100 µM
TGI [9]: > 100 µM
TGI [10]: > 100 µM
TGI [12]: > 100 µM
TGI [13]: > 100 µM
TGI [14]: > 100 µM
TGI [15]: > 100 µM
TGI [16]: > 100 µM
TGI [18]: > 100 µM
TGI [19]: > 100 µM
TGI [20]: > 100 µM
TGI [21]: > 100 µM
TGI [22]: > 100 µM
TGI [23]: > 100 µM
TGI [24]: > 100 µM
TGI [25]: > 100 µM
TGI [27]: > 100 µM
TGI [28]: > 100 µM
TGI [29]: > 100 µM
TGI [31]: > 100 µM
TGI [32]: > 100 µM
TGI [36]: > 100 µM
TGI [59]: > 100 µM
TGI [37]: > 100 µM
TGI [38]: > 100 µM
TGI [40]: > 100 µM
TGI [41]: > 100 µM
TGI [42]: > 100 µM
TGI [43]: > 100 µM
TGI [45]: > 100 µM
TGI [46]: > 100 µM
TGI [47]: > 100 µM
TGI [48]: > 100 µM
TGI [49]: > 100 µM
TGI [50]: > 100 µM
TGI [51]: > 100 µM
TGI [58]: > 100 µM
TGI [53]: > 100 µM
TGI [54]: > 100 µM
TGI [55]: > 100 µM
TGI [56]: > 100 µM
